Biological target: IRAK4 (Homo sapiens (Human), UniProt Q9NWZ3)
Assay: IRAK4 Kinase Assay (IMAP fluorescence polarization)
Type: biochemical
Conditions: 0.5 nM GST tagged IRAK4, 100 μM ATP, 100 nM fluorescent peptide substrate RP7030, 30 minutes at 25° C.
Protocol: The kinase activity of IRAK4 is determined by its ability to catalyze the phosphorylation of a fluorescent polypeptide substrate. The extent of phosphorylation is measured using the IMAP technology (Molecular Devices) where the phosphorylated fluorescent substrate binds to the large M(III)-based nanoparticles which reduces the rotational speed of the substrate and thus increases its fluorescent polarization (FP).
20 μL reaction mixture contains 10 mM TriHCl, pH 7.2, 0.5 nM GST tagged IRAK4 (SignalChem), 100 nM fluorescent peptide substrate (RP7030, Molecular Devices), 100 μM ATP, 1 mM DDT, 1 mM MgCl2, and 0.01% Tween 20. The reaction is initiated by the addition of ATP. After incubation for 30 minutes at 25° C., 60 μL of Progressive IMAP Reagent (Molecular Devices) is added to stop the reaction. Change in RP7030's FP is determined by a FP reader (Analyst HT, LJL BioSystems).

IRAK4, sequence (Q9NWZ3 whole entry): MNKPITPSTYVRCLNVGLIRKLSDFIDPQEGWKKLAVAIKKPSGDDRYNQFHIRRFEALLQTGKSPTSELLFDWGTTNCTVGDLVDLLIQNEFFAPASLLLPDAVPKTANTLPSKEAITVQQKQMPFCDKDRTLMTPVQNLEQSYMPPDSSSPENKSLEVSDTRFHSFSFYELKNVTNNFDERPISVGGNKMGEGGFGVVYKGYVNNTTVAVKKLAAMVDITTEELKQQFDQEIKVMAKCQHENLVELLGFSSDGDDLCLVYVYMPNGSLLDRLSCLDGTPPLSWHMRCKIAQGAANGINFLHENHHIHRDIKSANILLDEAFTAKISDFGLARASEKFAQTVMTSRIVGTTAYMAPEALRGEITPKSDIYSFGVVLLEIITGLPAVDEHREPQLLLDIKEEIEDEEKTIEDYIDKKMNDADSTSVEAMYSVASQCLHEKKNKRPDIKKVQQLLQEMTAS

| Structure (SMILES) | IC50 |
| --- | --- |
| Nc1cncc(-c2cc3c(N[C@H]4CC[C@H](N5CCOCC5)CC4)ncnc3cc2F)c1 [Example 1-85, 6-(5-aminopyridin-3-yl)-7-fluoro-N-(trans-4-morpholin-4-ylcyclohexyl)quinazolin-4-amine] | 10 nM |
| CN(C)[C@H]1CC[C@H](Nc2ncnc3ccc(-c4cnc(NC5CC5)nc4)cc23)CC1 [Example 1-42, trans-N′-{6-[2-(cyclopropylamino)pyrimidin-5-yl]quinazolin-4-yl}-N,N-dimethylcyclohexane-1,4-diamine] | 11 nM |
| Cc1n[nH]c(C)c1-c1ccc2ncnc(N[C@H]3CC[C@H](N4CCOCC4)CC3)c2c1 [Example 2-24, 6-(3,5-dimethyl-1H-pyrazol-4-yl)-N-[trans-4-(morpholin-4-yl)cyclohexyl]quinazolin-4-amine] | 104 nM |
| COc1cc(-c2ccc3ncnc(N[C@H]4CC[C@H](N5CCOCC5)CC4)c3c2)cnc1F [Example 2-29, 6-(6-fluoro-5-methoxypyridin-3-yl)-N-[trans-4-(morpholin-4-yl)cyclohexyl]quinazolin-4-amine] | 20 nM |
| c1cncc(-c2ccc3ncnc(N[C@H]4CC[C@H](N5CCOCC5)CC4)c3c2)c1 [Example 1-46, N-[trans-4-(morpholin-4-yl)cyclohexyl]-6-(pyridin-3-yl)quinazolin-4-amine] | 19 nM |
| CN(C)[C@H]1CC[C@H](Nc2ncnc3ccc(-c4cnc5[nH]ccc5c4)cc23)CC1 [Example 1-55, trans-N,N-dimethyl-N′-[6-(1H-pyrrolo[2,3-b]pyridin-5-yl)quinazolin-4-yl]cyclohexane-1,4-diamine] | 46 nM |
| CN(C)c1cc(-c2ccc3ncnc(N[C@H]4CC[C@H](N5CCOCC5)CC4)c3c2)cnc1F [Example 2-31, 6-[5-(dimethylamino)-6-fluoropyridin-3-yl]-N-[trans-4-(morpholin-4-yl)cyclohexyl]quinazolin-4-amine] | 73 nM |
| Cn1cnc2cc(-c3ccc4ncnc(N[C@H]5CC[C@H](N(C)C)CC5)c4c3)cnc21 [Example 1-60, trans-N,N-dimethyl-N′-[6-(3-methyl-3H-imidazo[4,5-b]pyridin-6-yl)quinazolin-4-yl]cyclohexane-1,4-diamine] | 1690 nM |
| CC(C)c1nc(-c2ccc3ncnc(N[C@H]4CC[C@H](N5CCOCC5)CC4)c3c2)cs1 [Example 2-3, 6-[2-(1-methylethyl)-1,3-thiazol-4-yl]-N-(trans-4-morpholin-4-ylcyclohexyl)quinazolin-4-amine] | 390 nM |
| Cc1cn(C)c(-c2ccc3ncnc(N[C@H]4CC[C@H](N5CCOCC5)CC4)c3c2)n1 [Example 2-23, 6-(1,4-dimethyl-1H-imidazol-2-yl)-N-[trans-4-(morpholin-4-yl)cyclohexyl]quinazolin-4-amine] | 1190 nM |
| O=C(O)c1cccc(-c2ccc3ncnc(N[C@H]4CC[C@H](N5CCOCC5)CC4)c3c2)n1 [Example 2-8, 6-{4-[(trans-4-morpholin-4-ylcyclohexyl)amino]quinazolin-6-yl}pyridine-2-carboxylic acid] | 122 nM |
| Cc1c(-c2cncc(O)c2)ccc2ncnc(N[C@H]3CC[C@H](N4CCOCC4)CC3)c12 [Example 1-79, 5-{5-methyl-4-[(trans-4-morpholin-4-ylcyclohexyl)amino]quinazolin-6-yl}pyridin-3-ol] | 38 nM |
| CN(C)[C@H]1CC[C@H](Nc2ncnc3ccc(-c4cnc(N)nc4)cc23)CC1 [Example 1-29, trans-N′-[6-(2-aminopyrimidin-5-yl)quinazolin-4-yl]-N,N-dimethylcyclohexane-1,4-diamine] | 19 nM |
| CN(C)C1CCC(Nc2ncnc3ccc(-c4ccncc4)cc23)CC1 (single isomer, unassigned) [Example 1-6, cis or trans-N,N-dimethyl-N′-[6-(pyridin-4-yl)quinazolin-4-yl]cyclohexane-1,4-diamine] | 11 nM |
| CS(=O)(=O)Nc1cncc(-c2ccc3ncnc(N[C@H]4CC[C@H](N5CCOCC5)CC4)c3c2)c1 [Example 1-92, N-[5-(4-{[trans-4-(morpholin-4-yl)cyclohexyl]amino}quinazolin-6-yl)pyridin-3-yl]methanesulfonamide] | 24 nM |
| CN(C)[C@H]1CC[C@H](Nc2ncnc3ccc(-c4cncc(F)c4)cc23)CC1 [Example 1-53, trans-N′-[6-(5-fluoropyridin-3-yl)quinazolin-4-yl]-N,N-dimethylcyclohexane-1,4-diamine] | 24 nM |
| Oc1ncc(C(F)(F)F)cc1-c1ccc2ncnc(N[C@H]3CC[C@H](N4CCOCC4)CC3)c2c1 [Example 2-5, 3-{4-[(trans-4-morpholin-4-ylcyclohexyl)amino]quinazolin-6-yl}-5-(trifluoromethyl)pyridin-2-ol] | 928 nM |
| CN(C)[C@H]1CC[C@H](Nc2ncnc3ccc(-c4cncc(S(C)(=O)=O)c4)cc23)CC1 [Example 1-41, trans-N,N-dimethyl-N′-{6-[5-(methylsulfonyl)pyridin-3-yl]quinazolin-4-yl}cyclohexane-1,4-diamine] | 2350 nM |

Stronger by IC50, values ahead:

| IC50 | Structure (SMILES) |
| --- | --- |
| 4 nM | CN(C)[C@H]1CC[C@H](Nc2ncnc3ccc(-c4cc(O)c(F)c(F)c4)cc23)CC1 [Example 1-64, 5-(4-{[trans-4-(dimethylamino)cyclohexyl]amino}quinazolin-6-yl)-2,3-difluorophenol] |
| 9 nM | c1cc(-c2ccc3ncnc(N[C@H]4CC[C@H](N5CCOCC5)CC4)c3c2)ccn1 [Example 1-48, N-[trans-4-(morpholin-4-yl)cyclohexyl]-6-(pyridin-4-yl)quinazolin-4-amine] |
| < 0.5 nM | COCCN[C@H]1CC[C@H](Nc2ncnc3ccc(-c4cncc(O)c4)cc23)CC1 [Example 5-4, 5-[4-({trans-4-[(2-methoxyethyl)amino]cyclohexyl}amino)quinazolin-6-yl]pyridin-3-ol] |
| 4 nM | Nc1cc(-c2ccc3ncnc(N[C@H]4CC[C@H](N5CCO[C@@H](CF)C5)CC4)c3c2)cnc1F [Example 5-22, 6-(5-amino-6-fluoropyridin-3-yl)-N-{trans-4-[(2R)-2-(fluoromethyl)morpholin-4-yl]cyclohexyl}quinazolin-4-amine] |
| 2 nM | CNc1cc(-c2ccc3ncnc(N[C@H]4CC[C@H](N5CCC(F)CC5)CC4)c3c2)cnc1F [Example 5-29, 6-[6-fluoro-5-(methylamino)pyridin-3-yl]-N-[trans-4-(4-fluoropiperidin-1-yl)cyclohexyl]quinazolin-4-amine] |
| 1 nM | C[C@H]1CN([C@H]2CC[C@H](Nc3ncnc4ccc(-c5cnc(F)c(N)c5)cc34)CC2)CCO1 [Example 5-25, 6-(5-amino-6-fluoropyridin-3-yl)-N-{trans-4-[(2S)-2-methylmorpholin-4-yl]cyclohexyl}quinazolin-4-amine] |
| 9 nM | c1nc(N[C@H]2CC[C@H](N3CCOCC3)CC2)c2cc(-c3cnoc3)ccc2n1 [Example 1-96, 6-(isoxazol-4-yl)-N-[trans-4-(morpholin-4-yl)cyclohexyl]quinazolin-4-amine] |
| 1 nM | CN(C1CC1)[C@H]1CC[C@H](Nc2ncnc3ccc(-c4cncc(O)c4)cc23)CC1 [Example 5-3, 5-[4-({trans-4-[cyclopropyl(methyl)amino]cyclohexyl}amino)quinazolin-6-yl]pyridin-3-ol] |
| 5 nM | Oc1cc(-c2ccc3ncnc(N[C@H]4CC[C@H](N5CCOCC5)CC4)c3c2)cc(F)c1F [Example 1-70, 2,3-difluoro-5-{4-[(trans-4-morpholin-4-ylcyclohexyl)amino]quinazolin-6-yl}phenol] |

From patent US9969749B2, “Inhibitors of IRAK4 activity” (MERCK SHARP & DOHME CORP., priority 2014, dated 2018)
